According to PubChem BioAssay (NCI):
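48-hour exposure; five concentrations; linearly interpolated endpoints. GI50: concentration for 50% inhibition of growth. TGI: concentration producing complete growth inhibition.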

Columns and labels:
Assay in all cases: growth of human tumour cells (NCI), 48 h
LOX IMVI melanoma = tested on: LOX IMVI melanoma
A498 renal = tested on: A498 renal
ACHN renal = tested on: ACHN renal
SN12C renal = tested on: SN12C renal
SNB-19 CNS = tested on: SNB-19 CNS
MOLT-4 leukemia = tested on: MOLT-4 leukemia
TK-10 renal = tested on: TK-10 renal
HCT-15 colon = tested on: HCT-15 colon
HOP-62 NSCLC = tested on: HOP-62 NSCLC
SR leukemia = tested on: SR leukemia
RXF 393 renal = tested on: RXF 393 renal
SK-MEL-28 melanoma = tested on: SK-MEL-28 melanoma
HS 578T breast = tested on: HS 578T breast
SF-295 CNS = tested on: SF-295 CNS
MDA-MB-231 breast = tested on: MDA-MB-231 breast
DU-145 prostate = tested on: DU-145 prostate
OVCAR-5 ovarian = tested on: OVCAR-5 ovarian
M14 melanoma = tested on: M14 melanoma
NCI/ADR-RES ovarian = tested on: NCI/ADR-RES ovarian
SK-MEL-5 melanoma = tested on: SK-MEL-5 melanoma
NCI-H23 lung = tested on: NCI-H23 lung
NCI-H460 lung = tested on: NCI-H460 lung
MDA-MB-435 = tested on: MDA-MB-435
HCT-116 colon = tested on: HCT-116 colon
CCRF-CEM leukemia = tested on: CCRF-CEM leukemia
COLO 205 colon = tested on: COLO 205 colon
BT-549 breast = tested on: BT-549 breast
KM12 colon = tested on: KM12 colon

Question: With C=C(CN1C(=O)CN(C)C1=O)c1ccc(C(=O)Nc2ccccc2N)cc1 as the molecule, how does the GI50 (LOX IMVI melanoma) read?
Answer: 18.2 µM

Question: What about the TGI (LOX IMVI melanoma) of the same molecule?
Answer: 69.9 µM

Question: And the GI50 (A498 renal)?
Answer: 4.3 µM

Question: What about the TGI (A498 renal) of the same molecule?
Answer: 31.2 µM

Question: What about the GI50 (ACHN renal) of the same molecule?
Answer: 20.9 µM

Question: What about the TGI (ACHN renal) of the same molecule?
Answer: > 100 µM

Question: What about the GI50 (SN12C renal) of the same molecule?
Answer: 14.1 µM

Question: And the TGI (SN12C renal)?
Answer: 92.4 µM

Question: And the GI50 (SNB-19 CNS)?
Answer: 38.5 µM

Question: What about the TGI (SNB-19 CNS) of the same molecule?
Answer: > 100 µM

Question: What about the GI50 (MOLT-4 leukemia) of the same molecule?
Answer: 7.29 µM

Question: What about the TGI (MOLT-4 leukemia) of the same molecule?
Answer: 63.3 µM

Question: And the GI50 (TK-10 renal)?
Answer: 3.44 µM

Question: And the TGI (TK-10 renal)?
Answer: 31.5 µM

Question: What about the GI50 (HCT-15 colon) of the same molecule?
Answer: 40.9 µM

Question: What about the TGI (HCT-15 colon) of the same molecule?
Answer: > 100 µM

Question: What about the GI50 (HOP-62 NSCLC) of the same molecule?
Answer: 17.6 µM

Question: And the TGI (HOP-62 NSCLC)?
Answer: > 100 µM

Question: What about the GI50 (SR leukemia) of the same molecule?
Answer: 1.41 µM

Question: What about the TGI (SR leukemia) of the same molecule?
Answer: 10.7 µM

Question: And the GI50 (RXF 393 renal)?
Answer: 20.1 µM

Question: And the TGI (RXF 393 renal)?
Answer: 67.2 µM

Question: And the GI50 (SK-MEL-28 melanoma)?
Answer: 15.9 µM

Question: And the TGI (SK-MEL-28 melanoma)?
Answer: 54.8 µM

Question: And the GI50 (HS 578T breast)?
Answer: 22.5 µM

Question: And the TGI (HS 578T breast)?
Answer: > 100 µM

Question: And the GI50 (SF-295 CNS)?
Answer: 19.5 µM

Question: And the TGI (SF-295 CNS)?
Answer: > 100 µM

Question: What about the GI50 (MDA-MB-231 breast) of the same molecule?
Answer: 36.3 µM

Question: And the TGI (MDA-MB-231 breast)?
Answer: > 100 µM

Question: And the GI50 (DU-145 prostate)?
Answer: 25.9 µM

Question: And the TGI (DU-145 prostate)?
Answer: > 100 µM

Question: What about the GI50 (OVCAR-5 ovarian) of the same molecule?
Answer: 3.56 µM

Question: What about the TGI (OVCAR-5 ovarian) of the same molecule?
Answer: 85.2 µM

Question: What about the GI50 (M14 melanoma) of the same molecule?
Answer: 29.8 µM

Question: What about the TGI (M14 melanoma) of the same molecule?
Answer: > 100 µM

Question: What about the GI50 (NCI/ADR-RES ovarian) of the same molecule?
Answer: 12.5 µM

Question: And the TGI (NCI/ADR-RES ovarian)?
Answer: > 100 µM

Question: And the GI50 (SK-MEL-5 melanoma)?
Answer: 12.2 µM

Question: What about the TGI (SK-MEL-5 melanoma) of the same molecule?
Answer: 32.8 µM

Question: And the GI50 (NCI-H23 lung)?
Answer: 26.8 µM

Question: And the TGI (NCI-H23 lung)?
Answer: > 100 µM

Question: What about the GI50 (NCI-H460 lung) of the same molecule?
Answer: 15.9 µM

Question: And the TGI (NCI-H460 lung)?
Answer: > 100 µM

Question: And the GI50 (MDA-MB-435)?
Answer: 11.3 µM

Question: And the TGI (MDA-MB-435)?
Answer: 54.1 µM

Question: What about the GI50 (HCT-116 colon) of the same molecule?
Answer: 6.7 µM

Question: And the TGI (HCT-116 colon)?
Answer: 36.3 µM

Question: And the GI50 (CCRF-CEM leukemia)?
Answer: 11.6 µM

Question: And the TGI (CCRF-CEM leukemia)?
Answer: 87.3 µM

Question: And the GI50 (COLO 205 colon)?
Answer: 9.24 µM

Question: And the TGI (COLO 205 colon)?
Answer: 44.8 µM

Question: And the GI50 (BT-549 breast)?
Answer: 61.8 µM

Question: And the TGI (BT-549 breast)?
Answer: > 100 µM

Question: And the GI50 (KM12 colon)?
Answer: 28.6 µM

Question: And the TGI (KM12 colon)?
Answer: > 100 µM
